The values below come from patent US8541447B2 (priority 2003, dated 2013).

The target of the assay is muscarinic M3 receptor (Homo sapiens (Human), UniProt P20309). The format is binding.

Each structure is given as a SMILES string. Where two headings read alike, the source gives them in different places.

In the case of `O=C(Nc1ccc(Br)cc1)OC1C2CCN(CC2)C1Cc1cccnc1` (centres unmarked) [Compound 1, 2-((3-pyridinyl)methyl)-1-azabicyclo[2.2.2]oct-3-yl N-(4-bromophenyl)carbamate], the “ability to inhibit [3H]QNB binding at muscarinic sites” value (“ability to inhibit [3H]QNB binding” below) was “None of the compounds was able to inhibit [^3H]QNB binding”. On the same count and under the same terms, the result for `O=C(Nc1ccccc1)OC1C2CCN(CC2)C1Cc1cccnc1` (centres unmarked) [Compound 2, 2-((3-pyridinyl)methyl)-1-azabicyclo[2.2.2]oct-3-yl N-phenylcarbamate] reads “None of the compounds was able to inhibit [^3H]QNB binding”; that for `COc1ccc(NC(=O)OC2C3CCN(CC3)C2Cc2cccnc2)cc1` (centres unmarked) [Compound 4, 2-((3-pyridinyl)methyl)-1-azabicyclo[2.2.2]oct-3-yl N-(4-methoxyphenyl)carbamate], “None of the compounds was able to inhibit [^3H]QNB binding”. For the compound `O=C(NC1C2CCN(CC2)C1Cc1cccnc1)c1cc2ccccc2o1` (centres unmarked) [Compound 9, N-(2-((3-pyridinyl)methyl)-1-azabicyclo[2.2.2]oct-3-yl)benzofuran-2-carboxamide], for the setting “human clonal line TE671/RD”, the “ability to inhibit [3H]QNB binding” value was “None of the compounds was able to inhibit [^3H]QNB binding”.

Consider `O=C(NC1C2CCN(CC2)C1Cc1cccnc1)c1ccc(Sc2ccccc2)cc1` (centres unmarked) [Compound 11], for which the “ability to inhibit [3H]QNB binding” value (human clonal line TE671/RD) was “None of the compounds was able to inhibit [^3H]QNB binding”.
